# Results reported in patent publication US20250314636A1, “METHOD OF PREPARING AND EXPANDING A POPULATION OF IMMUNE CELLS FOR CANCER THERAPY, POTENCY ASSAY FOR TUMOR RECOGNITION, BIOLOGICAL VACCINE PREPARATION AND EPITOPETARGET FOR ANTIBODIES” (FUNDAÇÃO D. ANNA DE SOMMER CHAMPALIMAUD E DR. CARLOS MONTEZ …, priority 2022, published 2025).
# Like-named read-outs stand apart in the source and are kept apart here.
# Assays:
# TIL [1] = tested on: TIL
# Procedure: TIL were seeded at 10^4/well in medium with 10% human serum added 24 h later and reduced cytokine concentrations (IL-2 at 100 IU/mL, IL-15 at 100 IU/mL). Supernatants were tested for IFN-γ production with the Human IFN-γ ELISA basic kit (HRP) (Mabtech, 3420-1H-6) according to the manufacturer's instructions. The assay can also be performed using IL-7 at 100 IU/mL and 100 IU IL-15/mL).
# MHC class I responses were blocked using mAb clone w6/32 (mouse IgG2a) at 10 μg/mL, anti-HLA-DR clone L243 (mouse IgG2a) at 10 μg/mL, anti-HLA-DP clone B7/21 (mouse IgG3) at 10 μg/mL, anti-CD1d clone CD1d42 (mouse IgG1) at 10 μg/mL. Isotype control antibodies included mouse IgG2a and mouse IgG1 at 10 μg/mL. MR1 responses were blocked using the mAb clone 26.5 (mouse IgG2a) at 10 μg/mL. All antibodies are commercially available.
# PBMCs = experiment: Peptide recognition assay in PBMCs (IFN-γ in supernatant, 7 days); format: cell-based, human; conditions: for IFN-γ production, PBMCs: 10e4 PBMC/well co-cultured with the peptide for 7 days, supernatant tested; for PBMCs IFN-y: PBMCs harvested same day as skin lesion
# Procedure: (§1) Peptides from tumor-associated antigens (TAAs), listed in Table 5 were placed at 1 ug/well in duplicates using anti-CD3 at 30 ng/mL as well as PHA at 5 μg/mL as positive controls.
# (§2) The differences in TIL versus PBMCs can also be defined by peptide reactivity. 10e^4 TIL or 10e^4 PBMC/well were co-cultured with the peptides listed in Table 11 below for 7 days and the supernatants were tested for IFN-γ production.
# [2] = tested on: Posterior skin lesion T-cells; experiment: Peptide recognition by T-cells expanded from skin lesions (IFN-γ, 7 days); format: cell-based, human; conditions: T-cells expanded from skin lesion of patient with solid cancer
# Procedure: as §1
# TIL [3] = experiment: Peptide recognition assay in TIL (IFN-γ ELISA / IL-17 in supernatant, 7 days); format: cell-based, human; design: IFN-γ production, TIL: unit not given here; conditions: for IFN-γ production, TIL: 10e4 TIL/well co-cultured with the peptide for 7 days, supernatant tested; for Pancreatic TIL D1599 IFN-y / Pancreatic TILD1599 IL 17: Pancreatic TIL D1599; for IFN-γ production (in words): positive controls
# Procedure: as §1, §2
# PANC-1 = experiment: Cellular recognition assay: allogeneic tumor cell line PANC-1; format: cell-based, human; conditions: CD1d restricted IFN-γ production
# Procedure: All antibodies are commercially available.
# siRNA against MR1 was used to silence MR1 expression using Silencer Select Pre-designed siRNA (Ambion, Thermo Fisher)). A scramble siRNA was used as negative control (Ambion, Thermo Fisher). Briefly, target cells were seeded 24 h before transfection, both siRNAs were used at 10 μM with lipofectamine RNA iMAX diluted in OptiMEM, incubated for 5 minutes, and added on top of the cells. Cells were incubated for 48 h before being used on the respective assays.
# Autologous tumor, confirmed by standard histology, was viably snap frozen and then thawed to be used as targets in recognition assays once TIL had been expanded. Small autologous tumor pieces (1 mm^3) from tumor areas that contained tumor cells were tested in duplicates. TIL were incubated with tumor pieces or allogeneic tumor cells in CellGenix GMP DC media supplemented with 10% serum in the presence of IL-2 (50 IU/mL) and IL-15 (10 IU/mL) for testing MAIT—cells. TCR αβ T-cells or TCR γδ cells were tested for autologous or allogeneic tumor recognition using 100 IU IL-2/mL and 100 IU IL-15/mL; or using 100 IU IL-7/mL combined with 100 IU IL-15/mL. […]
# [4] = TIL that reacted against Human U11/U12 snRNP 35 kDa protein (81-90) tailored for HLA-B3501, + anti-ABC
# [5] = TIL that reacted against Human U11/U12 snRNP 35 kDa protein (81-90) tailored for HLA-B3501, + anti-DR
# [6] = TIL that reacted against Human U11/U12 snRNP 35 kDa protein (81-90) tailored for HLA-B3501, no blocking antibody
# [7] = TIL that reacted against SARS-CoV-2 spike (212-220) tailored for HLA-B3501, + anti-ABC
# [8] = TIL that reacted against SARS-CoV-2 spike (212-220) tailored for HLA-B3501, + anti-DR
# [9] = TIL that reacted against SARS-CoV-2 spike (212-220) tailored for HLA-B3501, no blocking antibody
molecule,measurement,setting,value
LP(V)RDLPQGF,IFN-γ Production,TIL [1]; [4],2062.87
same,IL-17 Production,TIL [1]; [4],12.68
same,IFN-γ Production,TIL [1]; [5],1974.19
same,IL-17 Production,TIL [1]; [5],257.46
same,IFN-γ Production,TIL [1]; [6],2611.08
same,IL-17 Production,TIL [1]; [6],238.70
same,IFN-γ Production,TIL [1]; [7],138.58
same,IL-17 Production,TIL [1]; [7],0.00
same,IFN-γ Production,TIL [1]; [8],1057.65
same,IL-17 Production,TIL [1]; [8],428.92
same,IFN-γ Production,TIL [1]; [9],1457.59
same,IL-17 Production,TIL [1]; [9],462.99
"phytohemagglutinin [PHA, reference compound]","IFN-γ production, PBMCs",PBMCs,71
same,PBMCs IFN-y,PBMCs; first PBMCs column,165.7 pg/ml/7 days
same,PBMCs IFN-y,PBMCs; second PBMCs column,165.7 pg/ml/7 days
same,Posterior skin lesion T-cells IFN-y,[2],901.0 pg/ml/7 days
same,"IFN-γ production, TIL",TIL [3],1336
same,Pancreatic TIL D1599 IFN-y,TIL [3],417 pg/mL
same,Pancreatic TILD1599 IL 17,TIL [3],4 pg/mL
same,IL-17 production (in words),"TIL [3]; positive control, TIL D1599",only limited amount of IL-17 production
same,IFN-γ production (in words),TIL [3]; TIL D1599,Strong IFN-γ production
COc1cccc2c1C(=O)c1c(O)c3c(c(O)c1C2=O)C[C@@](O)(C(=O)CO)C[C@@H]3O[C@H]1C[C@H](N)[C@H](O)[C@H](C)O1 [doxorubicin],PANC-1 recognition by γδ+ TIL after pretreatment of PANC-1 cells,PANC-1,not changed
LP(V)RDLVTGF,IFN-γ Production,TIL [1]; [4],1908.56
same,IL-17 Production,TIL [1]; [4],81.91
same,IFN-γ Production,TIL [1]; [5],1509.64
same,IL-17 Production,TIL [1]; [5],444.01
same,IFN-γ Production,TIL [1]; [6],2444.61
same,IL-17 Production,TIL [1]; [6],330.14
same,IFN-γ Production,TIL [1]; [7],879.62
same,IL-17 Production,TIL [1]; [7],0.00
same,IFN-γ Production,TIL [1]; [8],1289.42
same,IL-17 Production,TIL [1]; [8],420.07
same,IFN-γ Production,TIL [1]; [9],1230.50
same,IL-17 Production,TIL [1]; [9],372.84
Cc1oncc1C(=O)Nc1ccc(C(F)(F)F)cc1 [Leflunomide],PANC-1 recognition by γδ+ TIL after pretreatment of PANC-1 cells,PANC-1,not changed
GIPFIETSTKTRQRVED,"IFN-γ production, PBMCs",PBMCs,0
same,"IFN-γ production, TIL",TIL [3],85
TPLPVTDNSSASTGD,"IFN-γ production, PBMCs",PBMCs,0
same,"IFN-γ production, TIL",TIL [3],0
KLVVVGAGGVGKSALTI,"IFN-γ production, PBMCs",PBMCs,0
same,"IFN-γ production, TIL",TIL [3],0
YKLVVVGADGVGKSALT,"IFN-γ production, PBMCs",PBMCs,0
same,"IFN-γ production, TIL",TIL [3],0
YKLVVVGAGGVGKSALT,"IFN-γ production, PBMCs",PBMCs,0
same,"IFN-γ production, TIL",TIL [3],0
LQGGIPNGYLVLDLS,"IFN-γ production, PBMCs",PBMCs,0
same,"IFN-γ production, TIL",TIL [3],0
LVVVGAVGVGKSALT,"IFN-γ production, PBMCs",PBMCs,0
same,"IFN-γ production, TIL",TIL [3],0
KLVVVGAVGVGKSAL,"IFN-γ production, PBMCs",PBMCs,0
same,"IFN-γ production, TIL",TIL [3],0
WAVRPQDLDTCDPRQ,"IFN-γ production, PBMCs",PBMCs,0
same,"IFN-γ production, TIL",TIL [3],0
LDILDTAGKEEYSAMRD,"IFN-γ production, PBMCs",PBMCs,0
same,"IFN-γ production, TIL",TIL [3],0
YKLVVVGAVGVGKSALT,"IFN-γ production, PBMCs",PBMCs,0
same,"IFN-γ production, TIL",TIL [3],0
"OKT3: anti-CD3 directed antibody crosslinking the T-cell receptor, 30 ng/ml from Biolegend or Human Cell [reference compound]","IFN-γ production, PBMCs",PBMCs,63
same,PBMCs IFN-y,PBMCs; first PBMCs column,0.0 pg/ml/7 days
same,PBMCs IFN-y,PBMCs; second PBMCs column,0.0 pg/ml/7 days
same,Posterior skin lesion T-cells IFN-y,[2],27.0 pg/ml/7 days
same,IFN-γ Production,TIL [1]; [6],3333.24
same,IL-17 Production,TIL [1]; [6],417.70
same,IFN-γ Production,TIL [1]; [9],2540.06
same,IL-17 Production,TIL [1]; [9],305.99
same,"IFN-γ production, TIL",TIL [3],0
same,Pancreatic TIL D1599 IFN-y,TIL [3],200 pg/mL
same,Pancreatic TILD1599 IL 17,TIL [3],0 pg/mL
same,IFN-γ production (in words),TIL [3]; TIL D1599,Strong IFN-γ production
LDVLYPKARLAFQNM,"IFN-γ production, PBMCs",PBMCs,0
same,"IFN-γ production, TIL",TIL [3],0
ALACWGVRGSLLSEA,"IFN-γ production, PBMCs",PBMCs,0
same,"IFN-γ production, TIL",TIL [3],0
TPLPVTDTSSASTGD,"IFN-γ production, PBMCs",PBMCs,0
same,"IFN-γ production, TIL",TIL [3],0
TTPLPVTIPSSASSG,"IFN-γ production, PBMCs",PBMCs,0
same,"IFN-γ production, TIL",TIL [3],0
PVTSPSSASTGHAIP,"IFN-γ production, PBMCs",PBMCs,0
same,"IFN-γ production, TIL",TIL [3],0
TPLPVTDTSSASTGH,"IFN-γ production, PBMCs",PBMCs,0
same,"IFN-γ production, TIL",TIL [3],0
